Calls of active or inactive are those of the source. The rule behind the calls is not given here.
Tests used:
[1] = Toxicity in C57 mouse implanted with mouse Lewis lung carcinoma cell line overexpressing PD-L1 assessed as effect on spleen viscera index at 20 mg/kg,ip administrated once every three days for 19 days; format: organism-based; details: in vivo, 456 h, time 19 day
[2] = Toxicity in C57 mouse implanted with mouse Lewis lung carcinoma cell line overexpressing PD-L1 assessed as effect on liver viscera index at 20 mg/kg,ip administrated once every three days for 19 days; format: organism-based; details: in vivo, 456 h, time 19 day
[3] = Toxicity in C57 mouse implanted with mouse Lewis lung carcinoma cell line overexpressing PD-L1 assessed as effect on heart viscera index at 20 mg/kg,ip administrated once every three days for 19 days; format: organism-based; details: in vivo, 456 h, time 19 day
[4] = Toxicity in C57 mouse implanted with mouse Lewis lung carcinoma cell line overexpressing PD-L1 assessed as effect on lung viscera index at 20 mg/kg,ip administrated once every three days for 19 days; format: organism-based; details: in vivo, 456 h, time 19 day
[5] = Metabolic stability in rat liver microsomes assessed as intrinsic clearance; format: ADME, Microsome; details: read-out: CLH
[6] = Metabolic stability in human liver microsomes assessed as intrinsic clearance; format: ADME, Microsome; details: read-out: CLH
[7] = target: Programmed cell death protein 1/Programmed cell death 1 ligand 1 (Homo sapiens, UniProt Q15116+Q9NZQ7); test: Inhibition of PD-1/PD-L1 (unknown origin) protein-protein interaction incubated for 105 mins by HTRF assay; format: protein-complex assay
[8] = Metabolic stability in human liver microsomes assessed as half life; format: ADME, Microsome
[9] = Metabolic stability in rat liver microsomes assessed as half life; format: ADME, Microsome
T-cell [10] = test: Immunomodulatory activity in concanavalin A stimulated BALB/c mouse T-lymphocyte co-cultured with mouse CT26 cells assessed as T cell proliferation at 20 nM incubated for 48 hrs by flow cytometry (reference value: 64.08 +/- 0.91%); format: functional
T-cell [11] = test: Immunomodulatory activity in concanavalin A stimulated BALB/c mouse T-lymphocyte co-cultured with mouse CT26 cells overexpressing PD-L1 assessed as T cell proliferation at 20 nM incubated for 48 hrs by flow cytometry (reference value: 58.47 +/- 2.07%); format: functional
T-cell [12] = test: Immunomodulatory activity in concanavalin A stimulated BALB/c mouse T-lymphocyte co-cultured with mouse CT26 cells assessed as increase in T cell proliferation at 5 to 80 nM incubated for 48 hrs by flow cytometry; format: functional, cell-based; details: dose 5-80 nM
T-cell [13] = test: Immunomodulatory activity in concanavalin A stimulated BALB/c mouse T-lymphocyte co-cultured with mouse CT26 cells overexpressing PD-L1 assessed as increase in T cell proliferation at 5 to 80 nM incubated for 48 hrs by flow cytometry; format: functional, cell-based; details: dose 5-80 nM
T-cell [14] = test: Immunomodulatory activity in concanavalin A stimulated BALB/c mouse T-lymphocyte co-cultured with mouse CT26 cells overexpressing PD-L1 assessed as increase in proportion of CD3 positive CD8 positive T cells at 20 nM incubated for 48 hrs by flow cytometry (reference value: 15.01%); format: functional
T-cell [15] = test: Immunomodulatory activity in concanavalin A stimulated BALB/c mouse T-lymphocyte co-cultured with mouse CT26 cells overexpressing PD-L1 assessed as increase in proportion of CD3 positive CD8 positive T cells at 80 nM incubated for 48 hrs by flow cytometry (reference value: 14.38%); format: functional
T-cell [16] = test: Immunomodulatory activity in concanavalin A stimulated BALB/c mouse T-lymphocyte co-cultured with mouse CT26 cells overexpressing PD-L1 assessed as increase in proportion of CD3 positive CD69 positive T cells at 20 nM incubated for 48 hrs by flow cytometry (reference value: 39.97%); format: functional
T-cell [17] = test: Immunomodulatory activity in concanavalin A stimulated BALB/c mouse T-lymphocyte co-cultured with mouse CT26 cells overexpressing PD-L1 assessed as increase in proportion of CD3 positive CD69 positive T cells at 80 nM incubated for 48 hrs by flow cytometry (reference value: 41.22%); format: functional
CT26 [18] = test: Cytotoxicity against mouse CT26 cells assessed as cell growth inhibition at 0.25 to 4096 nM incubated for 48 hrs by MTT assay; format: functional, cell-based; details: dose 0.25-4096 nM
CT26 [19] = test: Cytotoxicity against mouse CT26 cells overexpressing PD-L1 assessed as cell growth inhibition at 0.25 to 4096 nM incubated for 48 hrs by MTT assay; format: functional, cell-based; details: dose 0.25-4096 nM
Lewis lung carcinoma [20] = test: Cytotoxicity against mouse Lewis lung carcinoma cell line assessed as cell growth inhibition at 0.25 to 4096 nM incubated for 48 hrs by MTT assay; format: functional, cell-based; details: dose 0.25-4096 nM
Lewis lung carcinoma [21] = test: Cytotoxicity against mouse Lewis lung carcinoma cell line overexpressing PD-L1 assessed as cell growth inhibition at 0.25 to 4096 nM incubated for 48 hrs by MTT assay; format: functional, cell-based; details: dose 0.25-4096 nM
Lewis lung carcinoma [22] = test: Antitumor immunity against mouse Lewis lung carcinoma cell line overexpressing PD-L1 co-cultured with concanavalin A stimulated BALB/c mouse spleen T cell assessed as increase in T cell infiltration into tumor matrix at 20 nM incubated for 48 to 72 hrs by fluorescence microscopy; format: functional, cell-based; details: time 48-72 hrs
Lewis lung carcinoma [23] = test: Antitumor immunity against mouse Lewis lung carcinoma cell line overexpressing PD-L1 co-cultured with concanavalin A stimulated BALB/c mouse spleen T cell assessed as increase in T cell infiltration into tumor matrix at 80 nM incubated for 48 to 72 hrs by fluorescence microscopy; format: functional, cell-based; details: time 48-72 hrs
[24] = Antitumor activity against mouse Lewis lung carcinoma cell line overexpressing PD-L1 implanted in C57 mouse model assessed as tumor growth inhibition at 20 mg/kg,ip administrated once every three days for 19 days; format: functional; details: 456 h, time 19 day, read-out: TGI
[25] = Toxicity in C57 mouse implanted with mouse Lewis lung carcinoma cell line overexpressing PD-L1 assessed as reduction in body weight at 20 mg/kg,ip administrated once every three days for 19 days; format: organism-based; details: in vivo, 456 h, time 19 day
[26] = Toxicity in C57 mouse implanted with mouse Lewis lung carcinoma cell line overexpressing PD-L1 assessed as effect on kidney viscera index at 20 mg/kg,ip administrated once every three days for 19 days; format: organism-based; details: in vivo, 456 h, time 19 day
[27] = Antitumor activity against mouse Lewis lung carcinoma cell line overexpressing PD-L1 implanted in C57 mouse model assessed as increase in infiltration of CD3 positive CD8 positive T cells in tumor by measuring viable cells at 20 mg/kg,ip administrated once every three days for 19 days by flow cytometry analysis (reference value: 84.51%); format: functional; details: time 19 day
[28] = Antitumor activity against mouse Lewis lung carcinoma cell line overexpressing PD-L1 implanted in C57 mouse model assessed as increase in infiltration of CD3 positive CD8 positive T cells in tumor by measuring early apoptotic cells at 20 mg/kg,ip administrated once every three days for 19 days by flow cytometry analysis (reference value: 1.32%); format: functional; details: time 19 day
[29] = Antitumor activity against mouse Lewis lung carcinoma cell line overexpressing PD-L1 implanted in C57 mouse model assessed as increase in infiltration of CD3 positive CD8 positive T cells in tumor by measuring late apoptotic cells at 20 mg/kg,ip administrated once every three days for 19 days by flow cytometry analysis (reference value: 9%); format: functional; details: time 19 day
[30] = Antitumor activity against mouse Lewis lung carcinoma cell line overexpressing PD-L1 implanted in C57 mouse model assessed as increase in infiltration of CD3 positive CD8 positive T cells in tumor by measuring necrotic cells at 20 mg/kg,ip administrated once every three days for 19 days by flow cytometry analysis (reference value: 5.17%); format: functional; details: time 19 day
[31] = Antitumor activity against mouse Lewis lung carcinoma cell line overexpressing PD-L1 implanted in C57 mouse model assessed as increase in infiltration of CD3 positive CD4 positive T cells in tumor by measuring viable cells at 20 mg/kg,ip administrated once every three days for 19 days by flow cytometry analysis (reference value: 83.97%); format: functional; details: time 19 day
[32] = Antitumor activity against mouse Lewis lung carcinoma cell line overexpressing PD-L1 implanted in C57 mouse model assessed as increase in infiltration of CD3 positive CD4 positive T cells in tumor by measuring early apoptotic cells at 20 mg/kg,ip administrated once every three days for 19 days by flow cytometry analysis (reference value: 2.24%); format: functional; details: time 19 day
[33] = Antitumor activity against mouse Lewis lung carcinoma cell line overexpressing PD-L1 implanted in C57 mouse model assessed as increase in infiltration of CD3 positive CD4 positive T cells in tumor by measuring late apoptotic cells at 20 mg/kg,ip administrated once every three days for 19 days by flow cytometry analysis (reference value: 12.07%); format: functional; details: time 19 day
[34] = Antitumor activity against mouse Lewis lung carcinoma cell line overexpressing PD-L1 implanted in C57 mouse model assessed as increase in infiltration of CD3 positive CD4 positive T cells in tumor by measuring necrotic cells at 20 mg/kg,ip administrated once every three days for 19 days by flow cytometry analysis (reference value: 1.72%); format: functional; details: time 19 day
[35] = Antitumor activity against mouse Lewis lung carcinoma cell line overexpressing PD-L1 implanted in C57 mouse model assessed as increase in CD8 positive GzmB positive T cells in tumor at 20 mg/kg,ip administrated once every three days for 19 days by flow cytometry analysis (reference value: 9.11%); format: functional; details: time 19 day
[36] = Antitumor activity against mouse Lewis lung carcinoma cell line overexpressing PD-L1 implanted in C57 mouse model assessed as increase in CD8 positive IFN-gamma positive T cells in tumor at 20 mg/kg,ip administrated once every three days for 19 days by flow cytometry analysis (Rvb =20.66%); format: functional; details: time 19 day

Chain of Programmed cell death protein 1/Programmed cell death 1 ligand 1 (Q15116 whole entry): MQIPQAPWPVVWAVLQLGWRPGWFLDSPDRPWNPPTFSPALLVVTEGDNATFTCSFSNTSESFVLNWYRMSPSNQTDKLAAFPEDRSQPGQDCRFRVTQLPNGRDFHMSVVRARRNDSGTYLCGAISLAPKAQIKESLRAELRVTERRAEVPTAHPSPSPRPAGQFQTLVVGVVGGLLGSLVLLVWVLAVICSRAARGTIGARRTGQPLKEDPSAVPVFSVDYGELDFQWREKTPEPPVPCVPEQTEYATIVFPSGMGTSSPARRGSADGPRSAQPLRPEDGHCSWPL
Chain of Programmed cell death protein 1/Programmed cell death 1 ligand 1 (Q9NZQ7 whole entry): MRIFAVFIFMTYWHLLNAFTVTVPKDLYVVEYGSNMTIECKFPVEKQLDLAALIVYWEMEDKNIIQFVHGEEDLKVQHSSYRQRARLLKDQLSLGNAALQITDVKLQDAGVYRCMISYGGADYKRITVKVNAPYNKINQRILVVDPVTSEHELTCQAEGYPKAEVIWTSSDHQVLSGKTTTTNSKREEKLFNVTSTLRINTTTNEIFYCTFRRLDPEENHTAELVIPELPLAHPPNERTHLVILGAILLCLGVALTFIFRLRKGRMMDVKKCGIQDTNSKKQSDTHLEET

CC(C)(CO)NCc1cnc2c(N3CCc4c(-c5ccccc5)cccc43)ncnc2c1
Activity [1]: Non-Toxic | Activity [2]: Non-Toxic | Activity [3]: Non-Toxic | Activity [4]: Toxic | microsomal CLint [5]: 8.8 µL/min/mg | microsomal CLint [6]: 6.9 µL/min/mg | IC50 [7]: 6.3 nM | half-life [8]: 3.34 h | half-life [9]: 2.64 h | Activity (T-cell [10]): 54.61% | Activity (T-cell [11]): 62.69% | Activity (T-cell [12]): Active | Activity (T-cell [13]): Active | Activity (T-cell [14]): 23.79% | Activity (T-cell [15]): 26.32% | Activity (T-cell [16]): 56.41% | Activity (T-cell [17]): 61.21% | Activity (CT26 [18]): inactive | Activity (CT26 [19]): inactive | Activity (Lewis lung carcinoma [20]): inactive | Activity (Lewis lung carcinoma [21]): inactive | Activity (Lewis lung carcinoma [22]): Active | Activity (Lewis lung carcinoma [23]): Active | inhibition in vivo at 20 mg/kg [24]: 61.9% | Activity [25]: Toxic | Activity [26]: Non-Toxic | Activity [27]: 75.06% | Activity [28]: 4.77% | Activity [29]: 17.77% | Activity [30]: 2.4% | Activity [31]: 73.8% | Activity [32]: 3.13% | Activity [33]: 22.29% | Activity [34]: 0.78% | Activity [35]: 21.13% | Activity [36]: 31.1%
